These results are taken from US10370410B2, “Cancer cell-targeting peptide and use thereof” (KYUNGPOOK NATIONAL UNIVERSITY INDUSTRY-ACADEMIC COOPERATION …, priority 2015, dated 2019).

For assay [1], the system named is K-ras transgenic tumor cells. The experiment in a line: Phage library screening and sequence analysis of phage clones. To be noted: phage clones from 4th and 5th screening rounds, sequence analysis. The class given is in vivo, mouse. As for the experimental part:
To screen peptides having specificity to K-ras transgenic tumor cells in the T7 CX7C phage library prepared above, a random peptide phage library (1×10^11 pfu) were injected into a K-ras^LA2 transgenic mouse via the tail vein.
After 15 minutes, the tumor was excised from the lungs of the K-ras^LA2 transgenic mouse, finely ground, and added to a DMEM medium to prepare a cell suspension, which was then passed through a70-M filter (DAKO, Carpinteria, Calif., USA). The phages bound to the tumor were reacted with 1% NP-40 for 10 minutes for separation. Afterwards, the separated phages were recovered by treatment with cultured BL21 host bacteria. The phages that were recovered by the BL21 host bacteria and amplified were injected into a K-ras^LA2 transgenic mouse via the tail vein. Such a round of the screening of phage library was repeated five times. […] At the final 5th round, the multiplicative […] of the phage clones increased 162 times the first round. Afterwards, from the 4th round and the 5th rounds, a total of 49 clones were randomly selected for the sequencing.
DNA inserts of each of the 49 phage clones collected in Example 2-2 were sequenced by an automated DNA sequencer (Genotech Inc., Daegeon and SolGent Inc. Daegu) using a 96 pill primer (New England Biolabs). To find amino acid motifs shared between the common sequences or peptides, amino acid sequences deduced based on the nucleotide sequences were was aligned by using the Clustal W program. To find proteins having significant homology, NCBI BLAST search was performed with respect to peptide sequences. As a result of the sequence analysis of the peptides, four phage clones with high affinity for the K-ras transgenic tumor cells were confirmed, and the peptide sequences thereof were as follows: CKSRKDGAC (4R-3, SEQ ID NO: 1), CMPKRPSSC (4R-16, SEQ ID NO: 2), CRGTAEG (4R-21, SEQ ID NO: 3), and CRQTKN (5R-7, SEQ ID NO: 4).

The test system of assay [2] is tumor of K-ras^LA2 transgenic mouse. The experiment in a line: Binding capability of phage clones to tumor (phage titer). The class given is in vivo. Particulars: phage clone expressing the peptide administered into K-ras^LA2 transgenic mouse; FIG. 4B. As for the experimental part:
The phage clones that express each of the peptides were administered into the K-ras^LA2 transgenic mouse, and bound to tumor, and a titer of the phage clones was measured.

Assay [3] concerns tumors of K-ras^LA2 transgenic mouse. The experiment in a line: Target transfer capability of FPI774-CRQTKN peptide (near-infrared organ imaging). The format is in vivo. Particulars: tail vein, 4 hours; for fluorescence of FPI774 in the lungs: FIG. 6A. The method, then:
To confirm the binding capability of the CRQTKN peptide (SEQ ID NO: 4) to the K-ras tumors, the FPI774-CRQTKN (SEQ ID NO: 13) peptide, which is a peptide labeled with a near-infrared fluorescent reagent FPI774, and a control peptide were administered into a K-ras^LA2 transgenic mouse and a normal mouse via the tail vein of each mouse.
After 4 hours, the mice were scarified, and each organ thereof was extracted for the near-infrared fluorescence imaging using the eXplore Optix system (ART Inc, Montreal, Canada).

Assay [4] relates to tumors of the K-ras^LA2 transgenic mouse. The experiment in a line: Near-infrared fluorescence imaging of FPI774-labeled tumor-targeting peptides. The class given is in vivo. To be noted: FPI774-labeled peptide, tail vein, 4 hours, FIG. 5. As for the experimental part:
To validate whether the peptides prepared in <Example 2-5> in the present invention were specifically transferred to the tumor cells of the K-ras^LA2 transgenic mouse, a control peptide and a peptide labeled with FPI774 and having SEQ ID NO: 1 to SEQ ID NO: 4 were injected into the K-ras^LA2 transgenic mouse and a normal mouse via the tail vein of each mouse. After 4 hours, the mice were sacrificed, and each organ thereof was extracted for the near-infrared fluorescence imaging using the eXplore Optix system (ART Inc, Montreal, Canada).

Ends that are not written are not given here. FPI774 = near-infrared fluorescent reagent (label)

As for “CKSRKDGAC (4R-3 peptide) [tumor-targeting peptide … identified by phage library screening; tested as phage clone and as FPI774-labeled peptide]”, the “affinity of phage clones for the K-ras transgenic tumor cells” value (“affinity of phage clones” for short) in assay [1] is on record as “high affinity”. The “binding capability of phage clone to the tumor (titer)” value in assay [2] is reported as “greatest binding capability”.

Turning to “FPI774-CRQTKN: CRQTKN peptide labeled with a near-infrared fluorescent reagent FPI774”, the “fluorescence of FPI774 in the lungs” value in assay [3] (K-ras^LA2 transgenic mouse) is “strongly expressed”; in assay [3] (normal mouse), “not expressed”. In addition, in assay [3] (FIG. 6B), the “fluorescence of FPI774 in organs other than the lungs (kidney and liver)” value is given as “not observed in general”. Regarding “CMPKRPSSC (4R-16 peptide) [tumor-targeting peptide … identified by phage library screening]”, the “affinity of phage clones” value in assay [1] is on record as “high affinity”. Regarding “CRGTAEG (4R-21 peptide) [tumor-targeting peptide CRGTAEG identified by phage library screening]”, the “affinity of phage clones” value in assay [1] is reported as “high affinity”. As to “CRQTKN: tumor-targeting peptide CRQTKN identified by phage library screening (5R-7 peptide)”, in assay [1], the “affinity of phage clones” value is reported as “high affinity”. The “transfer to the tumors (near-infrared fluorescence)” value in assay [4] is reported as “most strongly transferred”.
